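Tested at 5 concentrations; 48 h exposure; 96-well plates; endpoints linearly interpolated, else capped at highest concentration. TGI marks complete inhibition of growth.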
Assays:
Assay in all cases: NCI anticancer screen, dose series, 48 h
SK-MEL-2 melanoma = system: SK-MEL-2 melanoma
LOX IMVI melanoma = system: LOX IMVI melanoma
ACHN renal = system: ACHN renal
NCI-H522 lung = system: NCI-H522 lung
OVCAR-3 ovarian = system: OVCAR-3 ovarian
T-47D breast = system: T-47D breast
RPMI-8226 leukemia = system: RPMI-8226 leukemia
TK-10 renal = system: TK-10 renal
SF-295 CNS = system: SF-295 CNS
SK-OV-3 ovarian = system: SK-OV-3 ovarian

## CN(C)CCNc1ccc2ncnc3c2c1C(=O)c1ccccc1-3
SK-MEL-2 melanoma
  TGI: 10.8 µM
LOX IMVI melanoma
  TGI: 10.5 µM
ACHN renal
  TGI: 8.77 µM
NCI-H522 lung
  TGI: 0.982 µM
OVCAR-3 ovarian
  TGI: 10.1 µM
T-47D breast
  TGI: 24.7 µM
RPMI-8226 leukemia
  TGI: 3.83 µM
TK-10 renal
  TGI: 3.92 µM
SF-295 CNS
  TGI: 2.88 µM
SK-OV-3 ovarian
  TGI: > 72.4 µM

## CCn1nc(C)c2c1C(=O)NC(C)C(=O)N2 (stereo unspecified)
ACHN renal
  TGI: > 100 µM
NCI-H522 lung
  TGI: > 100 µM
OVCAR-3 ovarian
  TGI: > 100 µM
TK-10 renal
  TGI: > 100 µM
SF-295 CNS
  TGI: > 100 µM
SK-OV-3 ovarian
  TGI: > 100 µM

## CC(C)(N)CO[C@H]1C[C@H]2CC[C@@]1(C)C2(C)C
SK-MEL-2 melanoma
  TGI: 35.3 µM
LOX IMVI melanoma
  TGI: 35.1 µM
ACHN renal
  TGI: 95 µM
NCI-H522 lung
  TGI: 37.1 µM
OVCAR-3 ovarian
  TGI: > 100 µM
T-47D breast
  TGI: 35.9 µM
RPMI-8226 leukemia
  TGI: 40.7 µM
TK-10 renal
  TGI: 40 µM
SF-295 CNS
  TGI: 39.3 µM
SK-OV-3 ovarian
  TGI: > 100 µM

## C=C(C)[C@@H]1CC[C@]2(C)CC[C@]3(C)[C@H](CC[C@@H]4[C@@]5(C)CC[C@H](OC(=O)c6ccccc6)C(C)(C)[C@@H]5CC[C@]43C)[C@@H]12
SK-MEL-2 melanoma
  TGI: > 100 µM
LOX IMVI melanoma
  TGI: > 100 µM
ACHN renal
  TGI: > 100 µM
NCI-H522 lung
  TGI: > 100 µM
OVCAR-3 ovarian
  TGI: > 100 µM
T-47D breast
  TGI: > 100 µM
RPMI-8226 leukemia
  TGI: > 100 µM
TK-10 renal
  TGI: > 100 µM
SF-295 CNS
  TGI: > 100 µM
SK-OV-3 ovarian
  TGI: > 100 µM

## COc1cc2cc[n+](C)c(Cc3ccccc3)c2cc1OC
SK-MEL-2 melanoma
  TGI: > 100 µM
LOX IMVI melanoma
  TGI: > 100 µM
ACHN renal
  TGI: > 100 µM
NCI-H522 lung
  TGI: > 100 µM
OVCAR-3 ovarian
  TGI: > 100 µM
RPMI-8226 leukemia
  TGI: > 100 µM
TK-10 renal
  TGI: > 100 µM
SF-295 CNS
  TGI: > 100 µM
SK-OV-3 ovarian
  TGI: > 100 µM

## CNC(C)Cc1ccccc1O (stereo unspecified)
SK-MEL-2 melanoma
  TGI: > 100 µM
LOX IMVI melanoma
  TGI: > 100 µM
ACHN renal
  TGI: > 100 µM
NCI-H522 lung
  TGI: > 100 µM
OVCAR-3 ovarian
  TGI: > 100 µM
RPMI-8226 leukemia
  TGI: > 100 µM
TK-10 renal
  TGI: > 100 µM
SF-295 CNS
  TGI: > 100 µM
SK-OV-3 ovarian
  TGI: > 100 µM

## Cc1nc(Cl)c(Cl)c(Cl)n1
SK-MEL-2 melanoma
  TGI: 2.73 µM
LOX IMVI melanoma
  TGI: 0.585 µM
ACHN renal
  TGI: 1.1 µM
NCI-H522 lung
  TGI: 3.88 µM
OVCAR-3 ovarian
  TGI: 0.281 µM
T-47D breast
  TGI: 7.71 µM
RPMI-8226 leukemia
  TGI: 0.203 µM
TK-10 renal
  TGI: 3.51 µM
SF-295 CNS
  TGI: 3.58 µM
SK-OV-3 ovarian
  TGI: 7.53 µM

## COc1ccc(-c2cc(-c3ccccc3)n(C3OCC(OC(C)=O)C(OC(C)=O)C3OC(C)=O)c(=S)c2C#N)cc1 (stereo unspecified)
SK-MEL-2 melanoma
  TGI: > 100 µM
LOX IMVI melanoma
  TGI: > 100 µM
ACHN renal
  TGI: > 100 µM
NCI-H522 lung
  TGI: > 100 µM
OVCAR-3 ovarian
  TGI: > 100 µM
T-47D breast
  TGI: > 100 µM
RPMI-8226 leukemia
  TGI: > 100 µM
TK-10 renal
  TGI: > 100 µM
SF-295 CNS
  TGI: > 100 µM
SK-OV-3 ovarian
  TGI: > 100 µM

## Nc1ccc2c(c1)C1=NNC(=O)CC1C2 (stereo unspecified)
SK-MEL-2 melanoma
  TGI: > 100 µM
LOX IMVI melanoma
  TGI: > 100 µM
NCI-H522 lung
  TGI: > 100 µM
OVCAR-3 ovarian
  TGI: > 31.6 µM
RPMI-8226 leukemia
  TGI: > 100 µM
SF-295 CNS
  TGI: > 100 µM
SK-OV-3 ovarian
  TGI: > 100 µM

## COc1ccc(NS(=O)c2ccc(-c3ccccc3)cc2)cc1 (stereo unspecified)
LOX IMVI melanoma
  TGI: > 100 µM
ACHN renal
  TGI: > 100 µM
NCI-H522 lung
  TGI: > 100 µM
OVCAR-3 ovarian
  TGI: > 100 µM
RPMI-8226 leukemia
  TGI: > 100 µM
TK-10 renal
  TGI: > 100 µM
SF-295 CNS
  TGI: > 100 µM

## CC1SC(c2ccccc2)N(Nc2c3ccccc3nc3ccccc23)C1=O (stereo unspecified)
SK-MEL-2 melanoma
  TGI: > 100 µM
LOX IMVI melanoma
  TGI: > 100 µM
ACHN renal
  TGI: > 100 µM
NCI-H522 lung
  TGI: > 100 µM
OVCAR-3 ovarian
  TGI: > 100 µM
RPMI-8226 leukemia
  TGI: > 100 µM
SF-295 CNS
  TGI: > 100 µM
SK-OV-3 ovarian
  TGI: > 100 µM

## CC(CN(C)C)C(=O)c1ccccc1C(=O)O (stereo unspecified)
SK-MEL-2 melanoma
  TGI: 46.9 µM
LOX IMVI melanoma
  TGI: > 100 µM
ACHN renal
  TGI: > 100 µM
NCI-H522 lung
  TGI: 36.6 µM
OVCAR-3 ovarian
  TGI: 54.1 µM
T-47D breast
  TGI: > 100 µM
RPMI-8226 leukemia
  TGI: 78 µM
TK-10 renal
  TGI: 47.7 µM
SF-295 CNS
  TGI: > 100 µM
SK-OV-3 ovarian
  TGI: > 100 µM

Source: PubChem BioAssay (NCI)
